The values below come from paper PMC3774136 (Bioorganic & medicinal chemistry letters, 2013).

Each structure is given as a SMILES string. Read-outs that look alike come from different tables or passages of the source.

The test system of series [1] is tubulin (colchicine site). To be noted: as reported in the literature, cited from earlier work.
In another series the test system is tubulin. The following applies: read-out: Tubulin polymerization IC50; as reported in the literature; cited from earlier work.
Series [2] concerns MCF-7 human breast cancer cells. Kind of series: Growth of MCF-7 human breast cancer cells. The format is cell-based. The following applies: compared with CA-4.

For orientation: IC50 means the concentration that inhibits the measured activity by half. As for `COc1ccc(Sc2cc(OC)c(OC)c(OC)c2)cc1` [Compound 1], the “Inhibition of binding of colchicine, % inhibition” value in series [1] (1 µM inhibitor) was 56 ± 7%; in series [1] (5 µM inhibitor) it was 89 ± 1%. The IC50 in the series on tubulin is 1.2 ± 0.1 µM. `COc1ccc(Sc2cc(OC)c(OC)c(OC)c2)cc1[N+](=O)[O-]` [Compound 2]: the “Cytotoxic activity in MCF-7 cells (in words)” value in series [2] was “inactive”. Same read-out and setting: next, `COc1cc(SSc2cc(OC)c(OC)c(OC)c2)cc(OC)c1OC` [Compound 8]: “inactive”; `COc1ccc([Se]c2ccc(OC)cc2)cc1` [Compound 12]: “inactive”; `COc1ccc([Se][Se]c2ccc(OC)cc2)cc1` [Compound 13]: “inactive”.
